In PMC11345830, “Exploration of Hydrazide-Based HDAC8 PROTACs for the Treatment of Hematological Malignancies and Solid Tumors” (Journal of Medicinal Chemistry, 2024):
Like-named read-outs stand apart in the source and are kept apart here. One block for each compound: values may come before it.

Legend:
HDAC8 [1] = target: T1, HDAC8 (Homo sapiens, UniProt Q9BY41); assay: HDAC8 degradation in Jurkat cells, Western blot; settings: for inhibition at 0.1 µM / Dmax: Jurkat; for inhibition at 0.1 µM: read-out: Degradation (%) at 100 nM (HDAC8); for Dmax: read-out: Dmax (HDAC8 degradation); for DC50: read-out: DC50 (HDAC8 degradation)
T1 sequence (Q9BY41 1-377): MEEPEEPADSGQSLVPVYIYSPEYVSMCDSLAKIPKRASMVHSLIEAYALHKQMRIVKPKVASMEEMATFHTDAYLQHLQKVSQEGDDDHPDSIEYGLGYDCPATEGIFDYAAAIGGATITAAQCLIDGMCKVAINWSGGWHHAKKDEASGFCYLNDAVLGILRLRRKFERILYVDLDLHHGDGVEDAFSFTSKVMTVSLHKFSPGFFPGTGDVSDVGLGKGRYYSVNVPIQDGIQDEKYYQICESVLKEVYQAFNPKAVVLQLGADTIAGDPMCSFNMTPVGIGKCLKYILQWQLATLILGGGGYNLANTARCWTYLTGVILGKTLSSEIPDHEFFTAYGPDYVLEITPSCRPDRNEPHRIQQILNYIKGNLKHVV

HDAC8 [2] = target: T1, HDAC8; set-up: endogenous in cells; host or cells: HCT116; method as in PMID 35759908; settings: HCT116 cells; cited from earlier work
A549 cells = assay: Cell viability MTS assay, A549; assay type: cell-based; settings: Homo sapiens, 72 h, read-out: IC50 antiproliferative, A549
Protocol: (§1) MTS assay was used to measure the cell viability. For single treatment, Jurkat, THP-1 and HEL (8000 cells/well), HCT116 and A549 (2000 cells/well) were seeded in 96-well plates in 100 μL complete medium. After overnight incubation, 50 μL of media containing various concentrations of compounds or the vehicle were added to each well. For cotreatment, cells were seeded in 96-well plates in 50 μL complete medium. After overnight incubation, 50 μL of Z-VAD-FMK, Nec-1, Fer-1, CQ, and other indicated compounds were added to each well. One hour later, 50 μL of media containing various concentrations of compounds were added to each well. After 72 h of treatment, 20 μL of CellTiter 96 AQueous One Solution reagent (Promega, Madison, USA) was added to each well according to manufacturer’s protocol. Plates were incubated at 37 °C for 1–2 h. The absorbance was determined at a wavelength of 490 nm using a Synergy H1 plate reader (Biotek, Winooski, VT, USA).

HCT116 cells = assay: Cell viability MTS assay, HCT116; assay type: cell-based; settings: Homo sapiens, HCT-116, 72 h, read-out: IC50 antiproliferative, HCT116
Protocol: as §1

THP-1 cells = assay: Cell viability MTS assay, THP-1; assay type: cell-based; settings: Homo sapiens, 72 h, read-out: IC50 antiproliferative, THP-1
Protocol: as §1

Jurkat cells = assay: Cell viability MTS assay, Jurkat; assay type: cell-based; settings: for IC50: Homo sapiens, Jurkat, 72 h, MTS assay, read-out: IC50 antiproliferative, Jurkat
Protocol: as §1

HDAC8 [3] = target: T1, HDAC8; assay: In vitro HDAC8 deacetylase inhibition assay
Protocol: After a following incubation at 37 °C for 20 min, the fluorescence was measured on a Synergy H1 Platereader (BioTek, USA) with an excitation wavelength of 370 nm and an emission wavelength of 460 nm. Nonlinear regression was used for the determination of the IC50 of each compound.

SMILES: CCCCCCNNC(=O)c1ccc(CNC(=O)CCCCCCCCCNc2cccc3c2C(=O)N(C2CCC(=O)NC2=O)C3=O)cc1 (stereo not drawn) [Z6, 10-((2-(2,6-Dioxopiperidin-3-yl)-1,3-dioxoisoindolin-4-yl)amino)-N-(4-(2-hexylhydrazine-1-carbonyl)benzyl)decanamide]
inhibition at 0.1 µM (HDAC8 [1]; 6 h): 43 ± 3%

SMILES: CCCCCCNNC(=O)c1ccc(CNC(=O)CCCCCCNc2cccc3c2C(=O)N(C2CCC(=O)NC2=O)C3=O)cc1 (stereo not drawn) [Z4, 7-((2-(2,6-Dioxopiperidin-3-yl)-1,3-dioxoisoindolin-4-yl)amino)-N-(4-(2-hexylhydrazine-1-carbonyl)benzyl)heptanamide]
inhibition at 0.1 µM (HDAC8 [1]; 6 h): 90 ± 10% | Dmax (HDAC8 [1]): 88% | DC50 (HDAC8 [1]; Jurkat cells, 6 h): 0.0167 µM

SMILES: O=C(CCCCOc1cccc(CCNC(=O)c2cccc(C(=O)NO)c2)c1)NCCCCCCNc1cccc2c1C(=O)N(C1CCC(=O)NC1=O)C2=O (stereo not drawn) [PROTAC 2]
DC50 (HDAC8 [2]): 0.147 µM

SMILES: COc1ccc(Cn2ccc3ccc(C(=O)NO)cc32)cc1 [PCI-34051]
IC50 (A549 cells): > 33.3 µM | IC50 (HCT116 cells): 21.9 ± 2.8 µM | IC50 (THP-1 cells): > 33.3 µM | IC50 (Jurkat cells): 4.5 ± 0.7 µM | decreased antiproliferative potency after Z16 pretreatment compared to single treatment (Jurkat cells; Jurkat pretreated with 50 nM Z16 for 2 h, then 72 h, MTS): about 5 fold

SMILES: CCCCCCNNC(=O)c1ccc(CNC(=O)CCCCCCCNc2cccc3c2C(=O)N(C2CCC(=O)NC2=O)C3=O)cc1 (stereo not drawn) [Z5, 8-((2-(2,6-Dioxopiperidin-3-yl)-1,3-dioxoisoindolin-4-yl)amino)-N-(4-(2-Hexylhydrazine-1-carbonyl)benzyl)octanamide]
inhibition at 0.1 µM (HDAC8 [1]; 6 h): 43 ± 17%

SMILES: CCCCCCNNC(=O)c1ccc(CNC(=O)CCCNc2cccc3c2C(=O)N(C2CCC(=O)NC2=O)C3=O)cc1 (stereo not drawn) [Z1, 4-((2-(2,6-Dioxopiperidin-3-yl)-1,3-dioxoisoindolin-4-yl)amino)-N-(4-(2-hexylhydrazine-1-carbonyl)benzyl)butanamide]
inhibition at 0.1 µM (HDAC8 [1]; 6 h): 73 ± 1%

SMILES: CCCCCCNNC(=O)c1ccc(CNC(=O)CCCCNc2cccc3c2C(=O)N(C2CCC(=O)NC2=O)C3=O)cc1 (stereo not drawn) [Z2, 5-((2-(2,6-Dioxopiperidin-3-yl)-1,3-dioxoisoindolin-4-yl)amino)-N-(4-(2-hexylhydrazine-1-carbonyl)benzyl)pentanamide]
inhibition at 0.1 µM (HDAC8 [1]; 6 h): 62 ± 2%

SMILES: CCCCCCNNC(=O)c1ccc(CNC(=O)CCCCCNc2cccc3c2C(=O)N(C2CCC(=O)NC2=O)C3=O)cc1 (stereo not drawn) [Z3, 6-((2-(2,6-Dioxopiperidin-3-yl)-1,3-dioxoisoindolin-4-yl)amino)-N-(4-(2-hexylhydrazine-1-carbonyl)benzyl)hexanamide]
inhibition at 0.1 µM (HDAC8 [1]; 6 h): 44 ± 13%

SMILES: CCCCCCNNC(=O)c1ccc(CNC(=O)CN2CCC(c3ccc(NC(C)=O)cc3)CC2)cc1 [Compound 32, 2-(4-(4-Acetamidophenyl)piperidin-1-yl)-N-(4-(2-hexylhydrazine-1-carbonyl)benzyl)acetamide]
IC50 (A549 cells): 12 ± 1.6 µM | IC50 (HCT116 cells): 2.8 ± 0.3 µM | IC50 (THP-1 cells): 3.4 ± 0.6 µM | IC50 (Jurkat cells): 3 ± 0.3 µM | HDAC8 degradation by control compounds (in words) (HDAC8 [1]; Jurkat cells, 6 h): Neither NC-Z16 nor 32 induced HDAC8 degradation | IC50 (HDAC8 [3]): 16.6 ± 2.8 µM

SMILES: Nc1cccc2c1C(=O)N(C1CCC(=O)NC1=O)C2=O (stereo not drawn) [Poma, pomalidomide]
IC50 (A549 cells): > 33.3 µM | IC50 (HCT116 cells): > 33.3 µM | IC50 (THP-1 cells): > 33.3 µM | IC50 (Jurkat cells): > 33.3 µM

Now from value to compound:

inhibition at 0.1 µM (HDAC8 [1]; 6 h): 25 ± 2%
SMILES: CCCCCCNNC(=O)c1ccc(CNCC2CCN(c3ccc4c(c3)C(=O)N(C3CCC(=O)NC3=O)C4=O)CC2)cc1 (stereo not drawn) [Z15, 4-((((1-(2-(2,6-Dioxopiperidin-3-yl)-1,3-dioxoisoindolin-5-yl)piperidin-4-yl)methyl)amino)methyl)-N′-hexylbenzohydrazide]

inhibition at 0.1 µM (HDAC8 [1]; 6 h): 14 ± 5%
SMILES: CCCCCCNNC(=O)c1ccc(CNC(=O)CCCCCCC(=O)N[C@H](C(=O)N2C[C@H](O)C[C@H]2C(=O)NCc2ccc(-c3scnc3C)cc2)C(C)(C)C)cc1 [Z10, N^1-(4-(2-Hexylhydrazine-1-carbonyl)benzyl)-N^8-((S)-1-((2S,4R)-4-hydroxy-2-((4-(4-methylthiazol-5-yl)benzyl)carbamoyl)pyrrolidin-1-yl)-3,3-dimethyl-1-oxobutan-2-yl)octanediamide]

inhibition at 0.1 µM (HDAC8 [1]; 6 h): 17 ± 8%
SMILES: CCCCCCNNC(=O)c1ccc(CNC(=O)CCCCC(=O)N[C@H](C(=O)N2C[C@H](O)C[C@H]2C(=O)NCc2ccc(-c3scnc3C)cc2)C(C)(C)C)cc1 [Z9, N^1-(4-(2-Hexylhydrazine-1-carbonyl)benzyl)-N^6-((S)-1-((2S,4R)-4-hydroxy-2-((4-(4-methylthiazol-5-yl)benzyl)carbamoyl)pyrrolidin-1-yl)-3,3-dimethyl-1-oxobutan-2-yl)adipamide]

inhibition at 0.1 µM (HDAC8 [1]; 6 h): 34 ± 3%
SMILES: CCCCCCNNC(=O)c1ccc(CNC(=O)C2CCN(c3ccc4c(c3)C(=O)N(C3CCC(=O)NC3=O)C4=O)CC2)cc1 (stereo not drawn) [Z14, 1-(2-(2,6-Dioxopiperidin-3-yl)-1,3-dioxoisoindolin-5-yl)-N-(4-(2-hexylhydrazine-1-carbonyl)benzyl)piperidine-4-carboxamide]

inhibition at 0.1 µM (HDAC8 [1]; 6 h): 20 ± 1%
SMILES: CCCCCCNNC(=O)c1ccc(CNC(=O)CCC(=O)N[C@H](C(=O)N2C[C@H](O)C[C@H]2C(=O)NCc2ccc(-c3scnc3C)cc2)C(C)(C)C)cc1 [Z8, N^1-(4-(2-Hexylhydrazine-1-carbonyl)benzyl)-N^4-((S)-1-((2S,4R)-4-hydroxy-2-((4-(4-methylthiazol-5-yl)benzyl)carbamoyl)pyrrolidin-1-yl)-3,3-dimethyl-1-oxobutan-2-yl)succinimide]

Degradation (%) at 100 nM (HDAC8) (HDAC8 [1]; Jurkat cells, 100 nM, 6 h, Western blot, n.d = no degradation): did not trigger visible degradation
SMILES: CCCCCCNNC(=O)c1ccc(CNC(=O)CCCCCCCCCCCNc2cccc3c2C(=O)N(C2CCC(=O)NC2=O)C3=O)cc1 (stereo not drawn) [Z7, 12-((2-(2,6-Dioxopiperidin-3-yl)-1,3-dioxoisoindolin-4-yl)amino)-N-(4-(2-Hexylhydrazine-1-carbonyl)benzyl)dodecanamide]

inhibition at 0.1 µM (HDAC8 [1]; 6 h): 65 ± 5%
SMILES: CCCCCCNNC(=O)c1ccc(CNC(=O)CCCCCCCCCCC(=O)N[C@H](C(=O)N2C[C@H](O)C[C@H]2C(=O)NCc2ccc(-c3scnc3C)cc2)C(C)(C)C)cc1 [Z13, N^1-(4-(2-Hexylhydrazine-1-carbonyl)benzyl)-N^12-((S)-1-((2S,4R)-4-hydroxy-2-((4-(4-methylthiazol-5-yl)benzyl)carbamoyl)pyrrolidin-1-yl)-3,3-dimethyl-1-oxobutan-2-yl)dodecanediamide]

inhibition at 0.1 µM (HDAC8 [1]; 6 h): 83 ± 2% | Dmax (HDAC8 [1]): 93% | DC50 (HDAC8 [1]; Jurkat cells, 6 h): 0.0621 µM
SMILES: CCCCCCNNC(=O)c1ccc(CNC(=O)CCCCCCCCC(=O)N[C@H](C(=O)N2C[C@H](O)C[C@H]2C(=O)NCc2ccc(-c3scnc3C)cc2)C(C)(C)C)cc1 [Z12, N^1-(4-(2-Hexylhydrazine-1-carbonyl)benzyl)-N^10-((S)-1-((2S,4R)-4-hydroxy-2-((4-(4-methylthiazol-5-yl)benzyl)carbamoyl)pyrrolidin-1-yl)-3,3-dimethyl-1-oxobutan-2-yl)decanediamide]

inhibition at 0.1 µM (HDAC8 [1]; 6 h): 13 ± 4%
SMILES: CCCCCCNNC(=O)c1cccc(NCc2ccc(C(=O)N3CCC(c4ccc(NC5CCC(=O)NC5=O)cc4)CC3)cc2)c1 (stereo not drawn) [Z18, 3-((4-(4-(4-((2,6-Dioxopiperidin-3-yl)amino)phenyl)piperidine-1-carbonyl)benzyl)amino)-N′-hexylbenzohydrazide]

inhibition at 0.1 µM (HDAC8 [1]; 6 h): 48 ± 4%
SMILES: CCCCCCNNC(=O)c1ccc(CNC(=O)CCCCCCCC(=O)N[C@H](C(=O)N2C[C@H](O)C[C@H]2C(=O)NCc2ccc(-c3scnc3C)cc2)C(C)(C)C)cc1 [Z11, N^1-(4-(2-Hexylhydrazine-1-carbonyl)benzyl)-N^9-((S)-1-((2S,4R)-4-hydroxy-2-((4-(4-methylthiazol-5-yl)benzyl)carbamoyl)pyrrolidin-1-yl)-3,3-dimethyl-1-oxobutan-2-yl)nonanediamide]
